Legend:
[1] = Competition reaction between ligand (Ls), CuCl2 and competing chelator (Lc), UV-visible; affinity constants; conditions: Ls/CuCl2/Lc 1/1/1 at 15 μM; solvent per ligand as in Table 3
[2] = Determination of log D7.4 (1-octanol / Tris-HCl buffer); format: physicochemical; conditions: 1-octanol / 20 mM Tris-HCl buffer containing 150 mM NaCl (pH = 7.4) (1/1, v/v)
Protocol: The ligand (2.0 mg) is dissolved in 2 ml of 1-octanol then 2 ml of 20 mM Tris-HCl buffer, pH=7.4 containing 150 mM NaCl are added. After mixing in a vortex for 3 min at ambient temperature, followed by centrifugation for 5 min at 9,000 rpm, the concentration of the ligand in each phase is determined by UV-visible spectrophotometry. The 1-octanol fractions are thus redivided until reproducible values of coefficient of division of obtained. This coefficient is expressed as the decimal logarithm of [(the concentration of ligand contained in the 1-octanol phase)/(the concentration of ligand contained in the buffered aqueous phase)]=log D7.4. Measurements were taken three times.

[3] = target: T1, Aβ1-42 (Homo sapiens, UniProt P05067); test: Inhibition of the precipitation of Aβ1-42 by the addition of ligand (Micro BCA assay of soluble/aggregated peptide); format: biochemical; conditions: Aβ1-42 5 μM, pH 7.4; for CuCl2 % soluble Aβ: 20 μM CuCl2, 1 h 37° C. then 1 h with 200 μM ligand; for FeCl3 % soluble Aβ: 20 μM FeCl3, 1 h 37° C. then 1 h with 200 μM ligand; for ZnCl2 % soluble Aβ: 20 μM ZnCl2, 1 h 37° C. then 1 h with 200 μM ligand; for without metal % soluble Aβ: no metal salt, 1 h 37° C. then 1 h with 200 μM ligand
T1 construct: The β-amyloid peptide Aβ1-42 (Aβ1-42) was synthesised, purified (to a purity greater than 95%); made in house; host or cells: chemical peptide synthesis (no expression host)
Protocol: After a further hour of incubation, the reaction mixture is centrifuged.
Before use, the water [of Milli-Q Millipore quality] and all buffer solutions were treated on Chelex-100 resin (Biorad) (5 mg/ml) and filtered through 0.2 μm filters (Whatman) to remove potential traces of metal ions or particles.
Working solutions of the peptide were prepared by solubilising 1 mg of lyophilised peptide in 500 μl of water and 500 μl of an aqueous NaOH solution pH=12.0, while stirring in a Thermomixer Comfort (Eppendorf). The peptide preparations are subsequently centrifuged for 10 minutes at 9,000 rpm and the supernatant is used as an “Aβ stock” solution. The concentration of peptide in the “Aβ stock” is determined immediately by colorimetric assay using a Micro BCA Protein Assays kit (Pierce) from standard ranges produced using known amounts of bovine serum albumin (BSA) then the Aβ1-42 peptide solution is aliquoted and frozen rapidly in liquid nitrogen prior to being stored at −20° C. until being used.
Salts are generated by adding one hydrochloric acid equivalent per nitrogen group equivalent of the ligand dissolved in DMSO. After evaporation of the solvent, these salts are dissolved at the desired concentration with DMSO and kept at −20° C. until they are used.
The protocol was established from works by: C. S. Atwood et al., J. Neurochem. […] The final concentrations are given. 500 μl of Aβ1-42 (5 μM is set to aggregate in 20 mM Tris-HCl buffer containing 150 mM NaCl (pH=7.4) for 1 hour at 37° C. while stirring at 1,400 rpm in the absence or presence of metal ions: CuCl2, ZnCl2 or FeCl3 (20 μM). Then 50 pi of ligand to be tested (200 μM) dissolved in DMSO are added and the samples are incubated for 1 further hour at 37° C. while stirring at 1,400 rpm. The samples without ligand also receive 50 μl of DMSO. The samples (final volume=550 μ) are subsequently centrifuged for 20 min at 9,000 rpm, and 500 μl of supernatant are removed. The tube containing the precipitation pellet then receives 450 μl of assay buffer/DMSO mixture (91/9, v/v). […] Quantification is carried out on the basis of standard BSA ranges. The amounts of Aβ1-42 actually contained in the pellet and the supernatant are obtained after a correction due to the presence of a residual portion of supernatant in the pellet-containing fraction.
For the control experiments with derivatives comprising a single quinoline residue, […] of ligand were added because complexes of type L2Cu are conventionally used in these cases.

[4] = UV-visible spectrophotometric titration with CuCl2 (metal/ligand stoichiometry); format: binding; conditions: 15 μM ligand; Tris-HCl buffer pH 7.4/organic solvent, per ligand as in Table 3 column Solvent
Protocol: (§1) An organic solvent (CH3OH, dioxane or DMSO) was added in order to achieve good solubility of the ligands and metal complexes in the concentrations used in these experiments. Exact proportions of the organic solvent/buffer mixture are specified for each UV-visible characterisation of the different ligands or metal complexes.
(§2) Aliquot portions of concentrated CuCl2 or ZnCl2 solutions (M) are added to a 15 μM ligand solution so as to induce only negligible variations in volume. After each addition, changes in absorption spectra are observed immediately and are consistent between two additions, which corresponds to a rapid complexing process. The exact absorption values relating to each ligand and the copper(II) or zinc(II) complexes thereof are detailed hereinafter in the Experimental part (in the Synthesis part for ligands and hereinafter for the metal complexes).
(§3) The stoichiometry of the different ligands (L) for Cu(II) or ZN(II) have therefore been determined spectrophotometrically by metal ion titration. In this example, for an M/L ratio increasing from 0 to 1, π→π* with transition, centred at 251 nm for the free ligand, is shifted to a lower energy with a concomitant appearance of an absorption band in the visible region of the spectrum (λmax to 383 nm), which is probably the result of an MLCT transition. For greater M/L ratios, no additional change in the UV-visible absorption spectra is observed.

[5] = Hydrogen peroxide produced by Aβ1-42 in the presence of CuCl2, ascorbate, air and ligand (Amplex Red H2O2/HRP); format: biochemical; conditions: CuCl2 0.4 μM, ascorbate 10 μM, air
Protocol: (§4) FIG. 11: Variation in H2O2 production by copper complexes of Aβ1-42 peptide as a function of the Cu(II)/Aβ stoichiometry. Experiments are carried out for 5 minutes in a sodium phosphate buffer (pH=7.4) in the presence 0.4 μM CuCl2, 10 μM ascorbate and air with or without 0.4 μM of 3 or 7. The H2O2 released is quantified by means of an Amplex-Red H2O2/HRP Assay kit.
(§5) The final concentrations are given. The reactions were carried out in the dark in mM sodium phosphate buffer (pH=7.4). Aβ1-42 (0.2 μM) and CuCl2 (0.4 μM) were pre-incubated for 1 hour at 37° C. while stirring at 1,400 rpm in 375 μl of buffer. Then 2 μl of a solution of ligand to be investigated (0.2; 0.4 or 0.8 μM) in DMSO were added. After incubation for a further hour, 2 μl of an aqueous sodium ascorbate solution (10 μM) were added and incubation was continued for 5 min while stirring. The amount of H2O2 produced is then quantified using an Amplex Red H2O2/HRP Assay Kit (Molecular Probes) while adding a volume of assay reagent to the samples, then incubating them for 1 hour at 37° C. while stirring at 500 rpm. […] Quantification is carried out on the basis of standard curves obtained with known amounts of H2O2.
(§6) The figures in the tables correspond to the amount of H2O2 (expressed in nanomoles) added using an Amplex Red H2O2/HRP Assay kit.

[6] = target: T2, copper complexes of Aβ1-42 peptide (Homo sapiens, UniProt P05067); test: as above; format: biochemical; conditions: CuCl2 0.4 μM, ascorbate 10 μM, air
T2 construct: The β-amyloid peptide Aβ1-42 (Aβ1-42) was synthesised, purified (to a purity greater than 95%); made in house; host or cells: chemical peptide synthesis (no expression host)
Protocol: as §4, §5, §6

[7] = test system: Salmonella tiphimurium TA100; test: AMES test, TA100; conditions: value per plate
Text: (§7) AMES test: The method is adapted from D. M. Maron and B. N. Ames, Mutat.
(§8) The test involves evaluating the potential of the tested molecules to induce mutation which is reverse to the histidine locus of these lines. These two lines were provided by Dr. Bruce N. Ames (University of California, Berkeley, USA). They are resistant to Ampicillin and sensitive to Tetracycline. They are not mutant toward rfa, UvγV and UvγA. The line TA98 (his D3052) contains a mutation of reading phase (GC) whereas the line TA100 (his G46) contains a substitution of base pair (GC).
(§9) The compounds to be tested were dissolved in 100% of DMSO (the solvent) and diluted logarithmically (by a factor of 10) so as to obtain 4 test concentrations of 30,000; 3,000; 300 and 30 μg/ml. Each series of 0.1 ml of stock solution to be tested, 0.1 ml of test line and of culture medium with or without 0.5 ml of enzymatic homogenate (S9) of rat liver microsome were mixed with 2 ml of molten agarose (containing 0.5 mM of histidine and 0.5 mM of biotin). This mixture was placed on the surface of a plate of minimal agarose glucose medium (30 ml for each Petri dish) so as to obtain final concentrations of compound to be tested of 3,000; 300; 30 and 3 μγ/plate. The plates were then incubated at 37° C. for 48 hours. […] The revertant colonies of the test lines were counted using a colony counter (Sigma). […] A compound inducing a number of colonies <50% of cells obtained for the solvent alone was deemed to be toxic for the bacteria tested. All the experiments were carried out in triplicate.

[8] = test system: Salmonella tiphimurium TA98; test: AMES test, TA98; conditions: value per plate
Text: as §7, §8, §9

[9] = Competition reaction between ligand (Ls), ZnCl2 and competing chelator (Lc), UV-visible; affinity constants; format: binding; conditions: Ls/ZnCl2/Lc 1/1/1 at 15 μM; solvent per ligand as in Table 3
Protocol: An organic solvent (CH3OH, dioxane or DMSO) was added in order to achieve good solubility of all the ligands and metal complexes in the concentrations used in these experiments.
As the concentration [MLs]=x % of C is measured on the UV-visible spectra, the concentrations [Ls]=(1−x) % of C, [MLc]=(1−x) % of C and [Lc]=x % of C can be deduced therefrom and:
In these conditions, [MLs]=[MLc]; [MLs]+[Lc]=Y, y≧50 and:
When log Ks 6, these equations are not used since the percentages of metal ion which is free in the solution or chelated by the solvent or the buffer are not negligible.

[10] = UV-visible spectrophotometric titration with ZnCl2 (metal/ligand stoichiometry); format: binding; conditions: 15 μM ligand; Tris-HCl buffer pH 7.4/organic solvent, per ligand as in Table 3 column Solvent
Protocol: as §1, §2, §3

T2 sequence (P05067 672-713 limits assumed, one chain of several): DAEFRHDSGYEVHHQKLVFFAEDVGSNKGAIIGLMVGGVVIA
T1 sequence (P05067 672-713): as the sequence (P05067 672-713 limits assumed, one chain of several) above

For `CCCCN(c1ccc2cccc(N)c2n1)c1ccc2cccc(N)c2n1` [Compound 23, N-butyl-2,2′-imino-bis(8-quinolineamine)], the “percentage of the CuLs species at equilibrium, competing ligand EDTA” value [1] was 30%, the logD at 3 min [2] was 2.5 ± 0.1 and the “CuCl2 % soluble Aβ” value [3] was 60 ± 4%. For the same molecule, the “FeCl3 % soluble Aβ” value [3] was 62%, the “ZnCl2 % soluble Aβ” value [3] was 58 ± 4% and the “without metal % soluble Aβ” value [3] was 73%. The “Complex observed by titration with Cu^II (observed L/Cu(II) stoichiometry)” value [4] was “LCu^II(1/1)”, the “amount of H2O2, without Aβ1-42” value ([5]; ligand 1 eq/Cu(II) (0.4 μM)) was 0.65 nmol and the “amount of H2O2, 0.2 μM Aβ1-42 Cu/Aβ = 2” value ([6]; ligand 1 eq/Cu(II) (0.4 μM)) was 0.69 nmol. For the same molecule, the “amount of H2O2, 0.5 μM Aβ1-42 Cu/Aβ = 0.75” value ([6]; ligand 1 eq/Cu(II) (0.4 μM)) was 0.49 nmol.
For `Oc1c(I)cc(Cl)c2cccnc12` [Clioquinol, reference compound], the logD at 3 min [2] was 3.8 ± 0.1, the “CuCl2 % soluble Aβ” value [3] was 55 ± 3% and the “FeCl3 % soluble Aβ” value [3] was 51%. The “ZnCl2 % soluble Aβ” value [3] was 37%, the “without metal % soluble Aβ” value [3] was 63% and the “TA100 Cytotoxicity” value ([7]; Addition of S9: no) was 30 µg. The “TA100 Cytotoxicity” value ([7]; Addition of S9: yes) was 30 µg, the “amount of H2O2, without Aβ1-42” value ([5]; ligand 1 eq/Cu(II) (0.4 μM)) was 2.07 nmol and the “amount of H2O2, without Aβ1-42” value ([5]; ligand 2 eq/Cu(II)) was 0.54 nmol. The “amount of H2O2, 0.2 μM Aβ1-42 Cu/Aβ = 2” value ([6]; ligand 1 eq/Cu(II) (0.4 μM)) was 0.89 ± 0.08 nmol, the “amount of H2O2, 0.5 μM Aβ1-42 Cu/Aβ = 0.75” value ([6]; ligand 1 eq/Cu(II) (0.4 μM)) was 0.64 nmol and the “amount of H2O2, 0.2 μM Aβ1-42 Cu/Aβ = 2” value ([6]; ligand 2 eq/Cu(II)) was 0.78 ± 0.06 nmol. For the same molecule, the “amount of H2O2, 0.5 μM Aβ1-42 Cu/Aβ = 0.75” value ([6]; ligand 2 eq/Cu(II)) was 0.57 nmol, the “TA98 Cytotoxicity” value ([8]; Addition of S9: no) was 300 µg and the “TA98 Cytotoxicity” value ([8]; Addition of S9: yes) was 300 µg.
For `COc1ccc2ccc(CCc3ccc4ccc(OC)c(O)c4n3)nc2c1O` [Compound 17, 2,2′-(1,2-ethanediyl)-bis[7-(methyloxy)-8-quinolinol]], the “percentage of the CuLs species at equilibrium, competing ligand EDTA” value [1] was 55%, the logD at 3 min [2] was 3.5 ± 0.1 and the “CuCl2 % soluble Aβ” value [3] was 38 ± 4%. For the same molecule, the “FeCl3 % soluble Aβ” value [3] was 38%, the “ZnCl2 % soluble Aβ” value [3] was 42 ± 4% and the “without metal % soluble Aβ” value [3] was 63 ± 3%. The “percentage of ZnLs species at equilibrium, competing ligand EDTA” value [9] was 35%, the “Complex observed by titration with Cu^II (observed L/Cu(II) stoichiometry)” value [4] was “LCu^II(1/1)” and the “Complex observed by titration with Zn^II (observed L/Zn(II) stoichiometry)” value [10] was “LZn^II(1/1)”. The “amount of H2O2, 0.2 μM Aβ1-42 Cu/Aβ = 2” value ([6]; ligand 1 eq/Cu(II) (0.4 μM)) was 0.69 nmol.
